Results reported in patent US10544113B2 (priority 2016, dated 2020).
Like-named read-outs stand apart in the source and are kept apart here.

Target: mu-opioid receptor (MOR) (Homo sapiens (Human), UniProt P35372)
Assay: cell-based
Conditions: combined with a MOR antagonist; for AUC: AUC of [Ca2+]i fluorescence, CHO-K1/MOR/Gα15 cells

Sequence of mu-opioid receptor (MOR) (P35372 whole entry): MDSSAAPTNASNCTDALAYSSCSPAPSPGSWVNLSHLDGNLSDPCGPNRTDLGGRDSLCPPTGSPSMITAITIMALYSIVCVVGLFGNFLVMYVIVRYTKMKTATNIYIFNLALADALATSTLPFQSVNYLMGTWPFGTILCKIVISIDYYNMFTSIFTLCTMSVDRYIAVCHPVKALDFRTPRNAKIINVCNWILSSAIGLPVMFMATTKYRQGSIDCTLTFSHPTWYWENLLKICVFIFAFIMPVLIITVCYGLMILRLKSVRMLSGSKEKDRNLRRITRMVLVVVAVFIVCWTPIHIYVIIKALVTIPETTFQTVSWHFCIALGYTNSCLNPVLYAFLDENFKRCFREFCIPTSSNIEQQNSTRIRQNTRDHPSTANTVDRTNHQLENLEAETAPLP

SMILES | EC50 (EC50, CHO-K1/MOR/Gα15 cells) [µM] | FLIPR Ca^2+ AUC | EC50 (read-out: FLIPR Ca^2+ EC50) [µM] | AUC
Cc1cc(C(=O)NC2CCC2)ccc1N1C(=O)CSC1c1ccc(F)cc1 (stereo not shown) [Example 337] | < 10 | 8936 | 0.3 | –
Cc1cc(C(=O)NC2CCCC2)ccc1N1C(=O)CSC1c1ccc(F)cc1 (stereo not shown) [Example 338] | < 10 | 9215 | 4.4 | –
Cc1cc(C(=O)NC2CCCCC2)ccc1N1C(=O)CSC1c1ccc(F)cc1 (stereo not shown) [Example 339] | – | 7164 | 10 | –
Cc1cc(C(=O)NCCN(C)C)ccc1N1C(=O)CSC1c1ccc(F)cc1 (stereo not shown) [Example 340] | – | 9445 | 10 | –
CCN(CC)CCNC(=O)c1ccc(N2C(=O)CSC2c2ccc(F)cc2)c(C)c1 (stereo not shown) [Example 341] | – | 9983 | 3.3 | –
Cc1cc(C(=O)NCCCN(C)C)ccc1N1C(=O)CSC1c1ccc(F)cc1 (stereo not shown) [Example 342] | – | 16741 | 3.3 | –
Cc1cc(C(=O)NCCCN2CCOCC2)ccc1N1C(=O)CSC1c1ccc(F)cc1 (stereo not shown) [Example 347] | – | 12967 | 8.2 | –
Cc1cc(C(=O)NCCCn2ccnc2)ccc1N1C(=O)CSC1c1ccc(F)cc1 (stereo not shown) [Example 348] | – | 13641 | 8.8 | –
Cc1cc(C(=O)N2CC[C@@H](N(C)C)C2)ccc1N1C(=O)CSC1c1ccc(F)cc1 (stereo partly shown) [Example 349] | – | 11923 | 10 | –
CCOC(=O)N1CCC(NC(=O)c2ccc(N3C(=O)CSC3c3ccc(F)cc3)c(C)c2)CC1 (stereo not shown) [Example 350] | – | 12979 | 4.4 | –
Cc1cc(C(=O)N2CCC(N)C2)ccc1N1C(=O)CSC1c1ccc(F)cc1 (stereo not shown) [Example 351] | – | 11205 | 10 | –
Cc1cc(C(=O)N2CCCC(O)C2)ccc1N1C(=O)CSC1c1ccc(F)cc1 (stereo not shown) [Example 353] | – | 11991 | 7.3 | –
Cc1cc(C(=O)N2CC(O)C2)ccc1N1C(=O)CSC1c1ccc(F)cc1 (stereo not shown) [Example 354] | – | 14863 | 3.6 | –
COC[C@@H]1CCCN1C(=O)c1ccc(N2C(=O)CSC2c2ccc(F)cc2)c(C)c1 (stereo partly shown) [Example 355] | – | 12691 | 10 | –
COCCN(C)C(=O)c1ccc(N2C(=O)CSC2c2ccc(F)cc2)c(C)c1 (stereo not shown) [Example 356] | – | 9505 | 11.8 | –
Cc1cc(C(=O)N2CCC(N)CC2)ccc1N1C(=O)CSC1c1ccc(F)cc1 (stereo not shown) [Example 357] | < 10 | 12663 | 10 | –
Cc1cc(C(=O)Nc2ccccc2)ccc1N1C(=O)CSC1c1ccc(F)cc1 (stereo not shown) [Example 361] | < 10 | 6128 | 8.8 | more than 5000
COc1cccc(NC(=O)c2ccc(N3C(=O)CSC3c3ccc(F)cc3)c(C)c2)c1 (stereo not shown) [Example 368] | < 10 | 8915 | 6.7 | more than 5000
COc1ccccc1NC(=O)c1ccc(N2C(=O)CSC2c2ccc(F)cc2)c(C)c1 (stereo not shown) [Example 373] | – | 12223 | 13.6 | more than 5000
Cc1cc(C(=O)NCc2ccccc2)ccc1N1C(=O)CSC1c1ccc(F)cc1 (stereo not shown) [Example 374] | – | 6726 | 5.1 | more than 5000
Cc1cc(C(=O)NCc2ccc(Cl)cc2F)ccc1N1C(=O)CSC1c1ccc(F)cc1 (stereo not shown) [Example 375] | – | 4172 | 3.8 | –
Cc1cc(C(=O)NCc2cc(F)ccc2F)ccc1N1C(=O)CSC1c1ccc(F)cc1 (stereo not shown) [Example 376] | – | 8823 | 1 | –
Cc1cc(C(=O)NCc2cccc(C(F)(F)F)c2)ccc1N1C(=O)CSC1c1ccc(F)cc1 (stereo not shown) [Example 377] | – | 12637 | 12.5 | –
Cc1cc(C(=O)NCc2ccc(F)c(F)c2)ccc1N1C(=O)CSC1c1ccc(F)cc1 (stereo not shown) [Example 378] | < 10 | 15891 | 6.3 | –
